Results on 67 compounds are retold here after PubChem BioAssay AID1902 (Broad Institute, 2009).

Active and inactive are the calls of the source.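 Rule for the calls: active = EC50 no more than a set limit of log units above the highest dose; inactive = the rest.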

The assay addresses S. pyogenes SKKanGAS, kanamycin survival, BacTiterGlo, 6 h. The assay can be described thus: SKKanGAS survival reduction under kanamycin, dose response, streptokinase promoter inhibitor project, SKKanGAS strain, luminescence, dose confirmation (AID 1902).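 Note: lower survival reflects blocked streptokinase promoter driving kanamycin resistance gene.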

Usually EC50 stands for the concentration giving half of the maximal effect. Regarding `CCCC(NC(=S)NCC1CCCO1)C12CC3CC(CC(C3)C1)C2` (configuration not stated), the EC50 was 5.79 µM.

Consider `CC(C)=CCC12Oc3cc(O)ccc3C1(O)Oc1cc(O)c([C@H]3C=C(C)CC(c4ccc(O)cc4O)[C@H]3C(=O)c3ccc(O)cc3O)c(O)c1C2=O` (some centres not stated), for which the 50% effective concentration (EC50) is 1.21 µM.

Take `CCn1c(=O)c(C(=O)NNC(=O)Cc2ccccc2)c(O)c2ccccc21`: the half-maximal effective concentration (EC50) was 4.71 µM.

In the case of `CC(C)C1C(c2ccccc2)N(C)C(c2ccccc2)CC1(O)c1ccccc1` (configuration not stated), the EC50 was 2.48 µM.

Turning to `O=C(c1ccc(Cl)cc1)c1cnc(Nc2ccccc2Cl)s1`, the EC50 was 6.77 µM.

As for `Cc1cc(C)nc(NC(N)=NCCc2c[nH]c3ccccc23)n1`, the EC50 is 11.6 µM.

Turning to `O=c1[nH]c2ccc(Cl)cc2c(-c2ccccc2)c1N1CCN(c2ccccn2)CC1`, the EC50 was 2.83 µM.

For `Cc1cccc(-c2nnc(NC(=O)c3ccc(Cl)cc3)o2)c1`, the EC50 is 0.097 µM.

For the compound `O=C(N/N=C/c1cc([N+](=O)[O-])ccc1O)c1cccc(N2CCCC2=O)c1`, the EC50 was 1.21 µM.

On to `C=C(C)COc1ccc(-c2nc(N)ncc2-c2ccc(Cl)cc2)c(O)c1`, for which the EC50 was 5.69 µM.

Regarding `CCOC(=O)c1sc2ncnc(N3CCN(c4ccc(OC)cc4)CC3)c2c1C`, the concentration for a half-maximal effect (EC50) is 10.3 µM.

For `Clc1ccc(-c2cc3ccccc3nc2N2CCCC2)cc1`, the EC50 was 5.14 µM.

As to `O=C(COc1ccc(F)cc1Cl)Nc1nc(-c2ccccn2)cs1`, the EC50 is 1.12 µM.

As to `C(=N\Nc1ncnc2sc3c(c12)CCC3)/c1cccs1`, the EC50 is 10.2 µM.

Consider `COc1cnc(-c2ccccn2)nc1N(C)c1ccccc1`, for which the half-maximal effective concentration (EC50) was 6.8 µM.

For the compound `Cc1cc(C)c(-c2cc(NC(=O)COC(=O)c3ccc(CO)cc3)n(-c3ccccc3)n2)cc1C`, the EC50 was 8.32 µM.

For `O=S(=O)(NCCSCc1c(Cl)cccc1Cl)c1ccc2c(c1)OCCO2`, the EC50 was 7.45 µM.

Turning to `COc1ccccc1NC(=O)Nc1nc(CC(=O)Nc2cc(F)ccc2F)cs1`, the half-maximal effective concentration (EC50) is 8.85 µM.

Consider `Oc1ccccc1C1=NN(c2ccccc2)C(c2ccccc2)C1` (configuration not stated), for which the EC50 was 2.76 µM.

For `O=C(CSc1ccccn1)N/N=C/c1cc([N+](=O)[O-])ccc1O`, the EC50 was 1.04 µM.

In the case of `Nc1nonc1-n1nnc(C(=O)N/N=C/c2cc(Cl)ccc2O)c1CN1CCCCCC1`, the EC50 was 5.76 µM.

Regarding `O=C(Nc1ccc([N+](=O)[O-])cc1)Nc1nc(-c2ccc(Cl)s2)cs1`, the EC50 is 2.95 µM.

As for `COc1cccc(C2CC(c3cccs3)=NN2C(=O)CSc2nc3c(cnn3-c3ccc(F)cc3)c(=O)[nH]2)c1OC` (configuration not stated), the EC50 was 2.03 µM.

In the case of `CCS(=O)(=O)Nc1ccc(-c2cc(-c3ccccc3)c3cc(C)ccc3n2)cc1`, the EC50 is 4.03 µM.

Take `CCCCn1c(O)c(C(C)=Nc2ccc(OCC)cc2)c(=O)[nH]c1=O`: the EC50 was 9.75 µM.

Turning to `CCCCCCCCCCOC(=O)Cn1c(COc2ccccc2OC)[n+](C)c2ccccc21`, the EC50 is 7.28 µM.

For the compound `O=C(Cn1sc2ccccc2c1=O)NC12CC3CC(CC(C3)C1)C2`, the EC50 is 1.12 µM.

Regarding `Brc1ccc(-c2cn3c(n2)CCc2ccc4cccnc4c2-3)cc1`, the half-maximal effective concentration (EC50) was 1.77 µM.

For the compound `Cc1cc(C)nc(N/N=C/c2cc(Br)ccc2O)n1`, the EC50 is 12.9 µM.

In the case of `CC1=NN(/C(=N\c2nnc(C)s2)Nc2ccc(C(C)(C)C)cc2)[C@H](c2ccc(C)cc2)S1`, the EC50 was 7.14 µM.

For the compound `Cc1cc(SCC(=O)c2ccc(O)c(O)c2)n2nc(C)c(-c3ccccc3)c2n1`, the EC50 is 5.05 µM.

Take `Cc1ccc(NC(=S)N=Nc2c(O)[nH]c3ccccc23)cc1`: the EC50 is 0.631 µM.

As to `N#CCC(=O)Nc1ccc(C(=O)OC(C(=O)Nc2cc(C(F)(F)F)ccc2Cl)c2ccccc2)cc1` (configuration not stated), the 50% effective concentration (EC50) was 3.64 µM.

As to `CCCCCCCCCCCC1=C(O)C(=O)C=C(O)C1=O`, the EC50 is 1.67 µM.

With `O=C(CSc1ccc2ccccc2n1)N/N=C/c1ccccc1O`, the concentration for a half-maximal effect (EC50) is 2.12 µM.

Regarding `CC(=O)Nc1nc2ccccc2n1CCOc1ccccc1`, the concentration for a half-maximal effect (EC50) was 11.3 µM.

For `CC(=O)Nc1ccc(C2C(=O)c3ccccc3C2=O)cc1`, the EC50 was > 15 µM (inactive).

For the compound `CN1CCN(C(c2ccc(Cl)cc2)c2cc(Cl)c3cccnc3c2O)CC1` (configuration not stated), the EC50 was 1.46 µM.

Take `Nc1nonc1C(=O)NCCN=Cc1cc(Cc2ccccc2)cc(Br)c1O`: the EC50 is 5 µM.

`CCOc1ccc(C(=O)NC(=S)Nc2ccc(N3CCOCC3)c(Cl)c2)cc1[N+](=O)[O-]`: the EC50 was 0.714 µM.

`O=C(O)c1cccc(N/N=C/C2=C(Cl)c3cc(Cl)ccc3SC2)c1`: the half-maximal effective concentration (EC50) is 1.77 µM.

On to `Cc1ccc(C(NC(=O)NC(C)c2ccccc2)C(Cl)(Cl)Cl)cc1F` (configuration not stated), for which the EC50 was 6.41 µM.

Consider `FC(F)(F)c1cccc(Nc2nc(N3CCCC3)nc(N3CCCC3)n2)c1`, for which the EC50 was 2.23 µM.

In the case of `CC(C)[C@@H](C(=O)NC1CCCC1)N1C(=O)N2CCc3c([nH]c4ccccc34)[C@@]2(C)C1=O`, the EC50 is > 15 µM (inactive).

Turning to `O=C(NNC(=O)c1cc(-c2ccc(Cl)cc2)nc2ccccc12)c1csc(N2CCOCC2)n1`, the 50% effective concentration (EC50) is 3.78 µM.

On to `NNc1nc(Nc2ccccc2)nc(Nc2ccccc2)n1`, for which the EC50 is 4.04 µM.

With `CC(C)C[C@H](NC(=O)c1[nH]cnc1C(=O)N[C@@H](C)C(=O)OC(C)(C)C)C(=O)OCc1ccccc1`, the concentration for a half-maximal effect (EC50) was 7.06 µM.

On to `O=C(Nc1nnc(C2=COCCO2)o1)c1cccc(C(F)(F)F)c1`, for which the EC50 is 1.73 µM.

On to `COc1ccc(-c2oc3ncn(Cc4ccco4)c(=N)c3c2-c2ccc(OC)cc2)cc1`, for which the EC50 was 4.76 µM.

For `CN(c1ccccc1)S(=O)(=O)c1ccc(C(=O)Nc2nnc(-c3ccc(F)cc3)o2)cc1`, the EC50 was 0.225 µM.

With `CCCCCCCCCCOC(=O)Cn1c(COc2ccc(C)cc2)[n+](C)c2ccccc21`, the EC50 was 5.67 µM.

For the compound `NC1CCN(c2nc3c(cc2F)c(=O)c(C(=O)O)cn3-c2ccc(F)cc2F)C1` (configuration not stated), the EC50 was 0.296 µM.

On to `CC(C)c1nc(NCc2ccccc2)c(C#N)c2c1CCCC2`, for which the EC50 was 3.55 µM.

Take `Cc1ccc(Nc2nc3ccccc3[nH]2)nc1`: the EC50 is 1.28 µM.

In the case of `Oc1[nH]c2ccc(Br)cc2c1N=NC(=S)N1CCOCC1`, the EC50 was 0.108 µM.

Turning to `O=C(N/N=C/c1cccc(F)c1)c1c(O)c2ccccc2[nH]c1=O`, the EC50 is 2.54 µM.

In the case of `CCCCCC(=O)NNC(=O)c1c(O)c2ccccc2n(CC)c1=O`, the half-maximal effective concentration (EC50) was 1.36 µM.

On to `CC1=C(C(=O)Nc2ccc([N+](=O)[O-])cc2)C(c2cccc(C(F)(F)F)c2)NC(=S)N1c1ccccc1` (configuration not stated), for which the EC50 was 4.02 µM.

Consider `Oc1ccc(/C=C/c2ccc3cccc(O)c3n2)cc1Br`, for which the EC50 was 1.04 µM.

Consider `Fc1ccc(CO/N=C/C2=C(Cl)c3ccccc3CC2)cc1`, for which the EC50 is 3.96 µM.

As to `COc1cc(/C=N\NC(=O)c2ccc(Cn3cc(Br)c([N+](=O)[O-])n3)o2)cc(OC)c1O`, the EC50 is 4.97 µM.

For `O=C(NC(Cc1c[nH]c2ccccc12)C(=O)N/N=C/c1cccc2ccccc12)c1cccs1` (configuration not stated), the EC50 was 5.37 µM.

Turning to `CCOC(=O)C1CCN(C(=O)c2ccc3c(=O)n4nc(Nc5cc(C)ccc5C)sc4nc3c2)CC1`, the EC50 was 8.2 µM.

As for `O=C(NNC1=C(C(=O)C(F)(F)F)CCC1)c1cccc(Cl)c1`, the EC50 was 0.931 µM.

Regarding `O=C(N/N=C/c1cc([N+](=O)[O-])ccc1O)c1cccc(NC(=O)c2cccc(Cl)c2)c1`, the EC50 was 4.69 µM.

As to `Cc1ccc(/C=N/NC(=O)Cc2ccc(Cl)cc2)c(O)c1`, the concentration for a half-maximal effect (EC50) was 0.866 µM.

Regarding `CCCCNc1c(-c2ccc(OC)c(SC3CCCCC3)c2)nc2cnccn12`, the EC50 was 3.62 µM.
